From patent US20060079696A1, “Substituted compounds derived from N-(benzyl)phenylacetamide, preparation and uses” (GENFIT, priority 2004, published 2006)

What was measured:
[1] = tested on: isolated human pancreatic islets; assay: Insulin secretion by isolated human pancreatic islets; type: cell-based; conditions: 1 hour incubation
Procedure: Isolated islets of Langerhans were put together with compounds according to the invention. They were incubated for one hour, and then the supernatant was taken off. The insulin contained in the supernatant (which corresponds to the insulin secreted by the islets over 1 hr) was titrated. It was compared to the basal secretion of insulin, i.e. to the quantity of insulin secreted by the islets over 1 hour in the absence of a compound. The higher the induced insulin/basal insulin ratio, the stronger the insulinotropic potential of the compound.
This study was carried out in the cellular therapy of diabetes laboratory led by Professor Pattou (INSERM ERIT-M 0106, Faculty of medicine of Lille, France (59)). The protocols for the extraction of islets and culture are published (Riachy, Vandewalle et al. 2001). The islets were cultured in a CMRL1066 (Gibco BRL) medium containing 5.5 mmol/l glucose. They were put together with the compounds (+0.001% DMSO). The insulin secreted was measured after 1 hour incubation (titration of the supernatant after centrifugation and extraction as described in the reference) according to a radioimmunological titration method (BI-INSULIN IRMA kit, Sanofi Diagnostics Pasteur). Each condition was applied to 5 independent islets preparations, each containing 40 equivalent islets (40 IE). […]

[2] = biological target: T1, ATP-dependent potassium channels (K+ATP) (Rattus norvegicus, UniProt Q09429); assay: [3H]glibenclamide binding to ATP-dependent potassium channels of rat cerebral cortex; conditions: FIG. 2
T1 construct: the potassium channels derive from a rat's cerebral cortex; tissue CEREP; host or cells: rat cerebral cortex
T1 sequence (Q09429 whole entry): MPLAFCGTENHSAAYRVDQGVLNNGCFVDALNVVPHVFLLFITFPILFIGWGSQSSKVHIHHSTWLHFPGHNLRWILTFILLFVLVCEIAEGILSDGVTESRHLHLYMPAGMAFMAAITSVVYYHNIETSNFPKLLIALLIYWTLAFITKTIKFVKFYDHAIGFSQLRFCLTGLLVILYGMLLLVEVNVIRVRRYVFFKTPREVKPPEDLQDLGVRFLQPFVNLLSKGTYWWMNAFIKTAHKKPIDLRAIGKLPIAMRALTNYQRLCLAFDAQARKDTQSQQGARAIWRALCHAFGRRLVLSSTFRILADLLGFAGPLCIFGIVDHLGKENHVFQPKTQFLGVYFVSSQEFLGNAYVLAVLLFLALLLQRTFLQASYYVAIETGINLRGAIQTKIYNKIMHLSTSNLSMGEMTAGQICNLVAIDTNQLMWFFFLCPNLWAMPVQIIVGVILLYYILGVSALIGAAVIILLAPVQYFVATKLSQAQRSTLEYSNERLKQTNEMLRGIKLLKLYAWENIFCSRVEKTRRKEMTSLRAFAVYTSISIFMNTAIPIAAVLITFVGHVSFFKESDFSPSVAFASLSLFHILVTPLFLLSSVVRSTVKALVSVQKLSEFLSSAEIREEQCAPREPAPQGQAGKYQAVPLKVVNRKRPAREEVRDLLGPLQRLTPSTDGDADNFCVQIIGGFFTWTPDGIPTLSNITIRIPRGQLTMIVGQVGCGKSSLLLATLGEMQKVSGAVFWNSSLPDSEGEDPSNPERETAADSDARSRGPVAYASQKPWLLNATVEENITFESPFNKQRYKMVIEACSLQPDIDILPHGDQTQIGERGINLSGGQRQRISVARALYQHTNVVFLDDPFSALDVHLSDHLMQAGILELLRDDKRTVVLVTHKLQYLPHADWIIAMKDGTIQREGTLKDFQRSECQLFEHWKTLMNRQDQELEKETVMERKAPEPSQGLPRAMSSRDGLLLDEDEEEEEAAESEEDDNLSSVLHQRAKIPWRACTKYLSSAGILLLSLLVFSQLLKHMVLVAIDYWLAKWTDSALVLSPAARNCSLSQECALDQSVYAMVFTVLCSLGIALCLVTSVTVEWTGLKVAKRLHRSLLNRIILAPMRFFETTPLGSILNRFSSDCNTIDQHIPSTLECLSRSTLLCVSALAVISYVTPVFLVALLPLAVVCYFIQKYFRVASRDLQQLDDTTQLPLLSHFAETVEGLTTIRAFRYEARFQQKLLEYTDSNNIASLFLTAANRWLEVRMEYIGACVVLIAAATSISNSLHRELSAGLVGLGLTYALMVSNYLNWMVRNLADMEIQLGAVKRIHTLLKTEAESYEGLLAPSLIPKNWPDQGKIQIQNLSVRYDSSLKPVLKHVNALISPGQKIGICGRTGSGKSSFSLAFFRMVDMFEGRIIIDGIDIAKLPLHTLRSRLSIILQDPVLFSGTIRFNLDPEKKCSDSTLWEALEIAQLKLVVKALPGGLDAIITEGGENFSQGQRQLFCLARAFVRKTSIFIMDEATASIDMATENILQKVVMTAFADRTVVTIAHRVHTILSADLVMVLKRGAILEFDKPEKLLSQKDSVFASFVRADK
T1 sequence (P70673 whole entry partner): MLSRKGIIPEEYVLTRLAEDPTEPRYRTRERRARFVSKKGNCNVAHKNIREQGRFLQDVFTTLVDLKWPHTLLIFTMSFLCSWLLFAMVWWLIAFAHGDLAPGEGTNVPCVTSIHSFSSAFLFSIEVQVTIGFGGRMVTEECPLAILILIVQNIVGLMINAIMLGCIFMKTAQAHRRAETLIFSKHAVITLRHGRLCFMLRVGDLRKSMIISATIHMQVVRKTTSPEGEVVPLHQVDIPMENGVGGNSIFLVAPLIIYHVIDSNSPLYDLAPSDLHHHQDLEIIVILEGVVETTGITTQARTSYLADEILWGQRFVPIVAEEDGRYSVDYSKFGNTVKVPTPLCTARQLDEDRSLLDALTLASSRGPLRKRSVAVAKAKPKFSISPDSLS
Outline: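 Rat cerebral cortex membranes incubated 1 h at 22° C with 0.1 nM [3H]glibenclamide; nonspecific binding defined with 1 μM unlabelled glibenclamide. Compounds tested at 3–300 nM; values are percent inhibition of specific binding.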

Male Sprague-Dawley rats = assay: Glycemia and insulinemia after oral administration in fasted rats; type: in vivo, rat
From the text: In normal animals (as in man), the consequence of the administration of insulinotropic compounds is a significant increase in the plasmatic level of insulin. This induced hyperinsulinemia induces a reduction in glycemia. This example studies the evolution of glycemia and of insulinemia following oral administration of the inventive compounds in rats: the insulinotropic action of the compounds in vivo should induce a significant decrease of glycemia.
Male Sprague-Dawley rats (300-320 g) (CERJ—Le Genest St Isle-France) were used in order to carry out this experiment. The rats were fed with a standard diet of granular material; they had free access to food and drink and were kept in individual, ventilated cages in a 12 hr/12 hr light/dark rhythm. The animals were deprived of food for 16 hours prior to the experiment.
The compound was suspended in an aqueous carboxymethylcellulose solution (Sigma C4888) at 1% containing 0.1% Tween80 (Sigma P8074). The animals of the control group received the vehicle alone. The treated animals received a single administration of the compound (the suspension was administered by gavage at the rate of 10 ml/kg). Each group was made up of 11 animals. A 1st blood sample was taken by puncturing the retro-orbital sinus of the animals under volatile isoflurane anaesthesia: this sample makes up the initial time of the experiment. The substance or the vehicle were immediately administered to the animals by gavage, and blood samples were taken over time.
The animals' glycemia was measured in real time using a glucometer (Glucotrend2-Roche Diagnostic-France). The insulinemias were measured using an ELISA kit (Insulin Elisa Kit—Crystal Chem. USA). The method used was of the ELISA type: plasmatic insulin was specifically bound to anti-insulin monoclonal antibodies immobilised on the microtitration plate; simultaneously, an anti-insulin polyclonal guinea pig antibody was added to the reaction. The revelation of the reaction was guaranteed by an antibody coupled to peroxidase. These antibodies bind specifically to the guinea pig's immunoglobulins. The production of oxidised chromogen causes an increase in absorbance in proportion to the quantity of insulin present in the sample.

CC(C)CC(NC(=O)Cc1ccc(OC(C)(C)C(=O)O)cc1)c1ccccc1N1CCCCC1 (stereo not drawn) [Compound 1, 2-[4-[1-(3-methyl-1-(2-(1-piperidinyl)phenyl)butyl)aminocarbonylmethyl]phenoxy]-2-methylpropanoic acid]
insulinotropic activity on human islets ([1]; 0.1 μM): not having any significant insulinotropic activity
insulin secreted in 1 hour versus non-treated islets ([1]; 1 μM): ~4 times
IC50 [2]: 14 nM
decrease in glycemia between T=0 and T=120 min (Male Sprague-Dawley rats; 50 mpk, oral, fasted rat): 48%
plasmatic insulin peak, time following administration (Male Sprague-Dawley rats; 50 mpk, oral, fasted rat): 15 min
hypoglycemia kinetics and amplitude compared with compound 52 (Male Sprague-Dawley rats; comparison of FIGS. 5a and 5c): faster and more intense
